From patent publication EP0235823A2, “Carbapenem antibiotics, a process for preparing them and pharmaceutical compositions containing them” (Bristol-Myers Squibb Company, priority 1986, dated 1987)
Converted amounts (≈) assume the structure as drawn.

Experiments:
Format in all cases: cell-based
[1] = tested on: S.aureus A9537; assay: In vitro antibacterial activity, MIC by tube dilution; conditions: Staphylococcus aureus, Nutrient Broth, overnight incubation at 37 deg. C
From the text: (§1) C by tube dilution. N-formimidoyl thienamycin was included as a comparison compound.

[2] = tested on: S.pneumoniae A9585; assay: as above; conditions: Streptococcus pneumoniae, Nutrient Broth, overnight incubation at 37 deg. C
From the text: as §1

[3] = tested on: S.faecalis A20688; assay: as above; conditions: Enterococcus faecalis, Nutrient Broth, overnight incubation at 37 deg. C
From the text: as §1

[4] = tested on: S.pyogenes A9604; assay: as above; conditions: Streptococcus pyogenes, Nutrient Broth, overnight incubation at 37 deg. C
From the text: as §1

[5] = tested on: S.aureus + 50% serum A9537S; assay: In vitro antibacterial activity, MIC by tube dilution, with 50% serum; conditions: Staphylococcus aureus, read-out: MIC (mcg/ml)
From the text: as §1

Row | Compound | MIC [1] | MIC [2] | MIC [3] | MIC [4] | MIC [5]
1 | C[C@@H](O)[C@H]1C(=O)N2C(C(=O)[O-])=C(SCC[N+]34CCN(CC3)CC4)[C@H](C)[C@H]12 [Ex. 7, (5R,6S) 3-[2-(1,4-diazabicyclo[2.2.2.]octanium-1-yl)ethylthio]-6-(1R-hydroxyethyl)-4R-methy3-7-oxo-1-azabicyclo[3.2.0]hept-2-ene-2-carboxylate] | 0.5 µg/mL (≈ 1.31 µM) | 0.03 µg/mL (≈ 0.0786 µM) | 2 µg/mL (≈ 5.24 µM) | 0.03 µg/mL (≈ 0.0786 µM) | 0.13 µg/mL (≈ 0.341 µM)
2 | CC(O)C1C(=O)N2C(C(=O)O)=C(SCCN=CN)CC12 (stereo not shown) [N-Formimidoy Thienamycin, N-formimidoyl thienamycin] | 0.004 µg/mL (≈ 0.0134 µM) | 0.002 µg/mL (≈ 0.00668 µM) | 0.25 µg/mL (≈ 0.835 µM) | 0.002 µg/mL (≈ 0.00668 µM) | 0.016 µg/mL (≈ 0.0534 µM)
